Where two headings read alike, the source gives them in different places.
How the values were obtained:
[1] = system: DHPS; conditions: ref 35; read-out: IC50; cited from earlier work
[2] = molecular target: T1, DHPS (Homo sapiens, UniProt P49366); experiment: Hyp'Assay: cell-free eIF5A hypusination in 96-well plates (recombinant eIF5A, DHPS, DOHH; anti-hypusine antibody Hpu24), substance present in the DHPS step; assay type: biochemical; conditions: for concentration from which inhibition of hypusination was detectable / hypusination signal, Mean (quantification from Figure 5A): 5 μM spermidine; for hypusination signal, Mean (quantification from Figure 5A): control 98,5
T1 construct: host or cells: E. coli BL21 (DE3)
T1 sequence (P49366 1-369): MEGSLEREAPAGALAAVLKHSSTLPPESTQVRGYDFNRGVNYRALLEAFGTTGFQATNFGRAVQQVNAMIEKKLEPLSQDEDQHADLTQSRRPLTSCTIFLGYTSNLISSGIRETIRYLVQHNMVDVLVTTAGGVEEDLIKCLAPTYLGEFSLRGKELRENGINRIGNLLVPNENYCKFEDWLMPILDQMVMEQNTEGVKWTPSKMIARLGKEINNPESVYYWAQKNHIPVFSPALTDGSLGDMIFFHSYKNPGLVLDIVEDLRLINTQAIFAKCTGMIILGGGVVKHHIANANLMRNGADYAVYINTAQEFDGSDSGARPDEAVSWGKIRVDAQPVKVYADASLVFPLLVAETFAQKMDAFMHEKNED
Experimental: The principle of the Hyp’Assay (Fig 2A) is to perform eIF5A hypusination reaction in 96-well plates, allow eIF5A to adsorb to the plate, incubate with an anti-hypusine antibody and a secondary antibody conjugated to HRP and reveal hypusination using TMB as a substrate.
(§1) […] Then 10 μL containing 1 μg of DOHH with 10 μM Fe^2+ (H8FeN2O8S2^. 6H2O) were added. After 1 h proteins were analyzed by Western Blot using antibodies toward DHPS, DOHH, Hypusine, and eIF5A.
(§2) The cell-free reaction described in 4.4 is performed in triplicates in a 96-wells plate (MaxiSorp, ThermoFisher) in the presence of 3 μg of eIF5A, 2 μg of DHPS, and 2 μg of DOHH by well. The reaction product, hypusinated eIF5A, is adsorbed onto the plate overnight at 4°C. The plate is washed (100 μL/well) thrice with PBS-T (PBS– 0.05% Tween20), then saturated with 1% non-fat dry milk in PBS-T for 2 h at room temperature. The plate is washed thrice with PBS-T and incubated overnight at 4°C with the anti-hypusine antibody (1:2000 in saturation buffer, 50 μL/well). The next day and after 5 washes with PBS-T, HRP-coupled anti-rabbit secondary antibody diluted 1:5000 in saturation buffer (50 μL/well) is added for 2 h at room temperature.

[3] = system: eIF5A hypusination in MCF7 cells; experiment: eIF5A hypusination in intact MCF7 cells, Western blot; assay type: cell-based, human; conditions: 40 μM, 24 h, Ctrl 100, 4 experiments
Experimental: We tested the ability of the GC7 analogs to inhibit hypusination in intact cells. MCF-7 cells (Fig 5B), a classical model of breast cancer cell line, and HT29 cells (Fig 5C), a cell model of colorectal cancer, were treated with 40 μM of GC7, 1, 2, 3, and 4 for 24h. Cells were lysed and analyzed by Western blot. As observed, none of the molecules modified eIF5A expression. […] GC7 analogs inhibited hypusination from 35 to 55%.
The human breast cancer cell line MCF7 (HTB-22 ATCC) and colorectal adenocarcinoma HT29 (HTB-38 ATCC) were cultured in DMEM (Gibco) supplemented with 10% FBS (Dutscher), 10 U/mL penicillin, and […] streptomycin. 1 mM of aminoguanidine was added to the medium to inhibit the degradation of GC7 and polyamines by amine oxidase from the serum and the production of reactive oxygen species. Cells were maintained at 37°C, 5% CO2 in a humid atmosphere.
After treatment, cells were washed with ice-cold PBS and lysed in RIPA Buffer (50 mM Tris pH 7.5, 150 mM NaCl, 0.1% SDS, 0.5% Na Deoxycholate, 5 mM NaF, 2.5 mM Na4P2O7, 1% NP4O) containing a protease inhibitor cocktail (complete Roche). 10 μg of proteins were separated by SDS PAGE and transferred to a PVDF membrane (Immobilon-P Millipore). The membranes were probed with the appropriate primary antibody that was detected by horseradish peroxidase-conjugated secondary antibody (Jackson Immunoresearch) and visualized by chemiluminescence (ECL Amersham RPN 3244) using a Fuji LAS-4000 imager. ImageJ® software was used to quantify band intensity and the ratios of proteins of interest were normalized to a loading control. Full-length Western blots are provided in the supplementary data (S19, S20 Figs).

[4] = molecular target: T2, DOHH (Homo sapiens, UniProt Q9BU89); experiment: Hyp'Assay, substance added after the deoxyhypusination reaction (DOHH step); assay type: biochemical; conditions: control 100,0
T2 construct: pelB leader (N); host or cells: E. coli BL21 (DE3)
T2 sequence (Q9BU89 1-302): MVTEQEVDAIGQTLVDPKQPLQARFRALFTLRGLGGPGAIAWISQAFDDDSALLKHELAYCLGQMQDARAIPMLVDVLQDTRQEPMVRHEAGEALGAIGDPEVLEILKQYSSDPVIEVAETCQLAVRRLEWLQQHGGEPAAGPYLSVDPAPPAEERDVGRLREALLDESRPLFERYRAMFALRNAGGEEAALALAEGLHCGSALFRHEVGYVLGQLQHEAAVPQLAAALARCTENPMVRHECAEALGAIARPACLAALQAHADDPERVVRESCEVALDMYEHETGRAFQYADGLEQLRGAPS
Experimental: We then tested the ability of DOHH inhibitors to inhibit eIF5A hypusination using the Hyp’Assay. During the Hyp’Assay, DOHH inhibitors were added after the deoxyhypusination reaction.
To address this issue, we compared the ability of GC7 to inhibit DHPS or DOHH by adding GC7 during the first step of the Hyp’Assay; when DHPS mediates the deoxyhypusination reaction (Fig 2A), or only during the second step, when DOHH hydroxylate deoxyhypusinated eIF5A. […] When finding new hypusination inhibitors adding them during the first or the second step of the Hyp’Assay will allow us to determine if the inhibition affects DHPS or DOHH. Another way to discriminate between DHPS or DOHH inhibitors would be to use Hpu98, an antibody that recognized both hypusinated and deoxyhypusinated eIF5A, instead of Hpu24, which is specific for hypusinated eIF5A [18]. […] We performed a new Hyp’Assay by omitting DOHH in the reaction mix and using the Hpu98 antibody. First, we performed a dose response experiment with spermidine at pH: 8.0 and 9.0 (Fig 3E). […] We also tested the ability of GC7 (Fig 3F) and CPX or EDTA (Fig 3G) to inhibit DHPS.
as §1, §2

[5] = molecular target: T1, DHPS; experiment: Hyp'Assay without DOHH: deoxyhypusination of eIF5A revealed with Hpu98 antibody; assay type: biochemical
Text: To address this issue, we compared the ability of GC7 to inhibit DHPS or DOHH by adding GC7 during the first step of the Hyp’Assay; when DHPS mediates the deoxyhypusination reaction (Fig 2A), or only during the second step, when DOHH hydroxylate deoxyhypusinated eIF5A. […] This confirms the specificity of GC7 towards DHPS. When finding new hypusination inhibitors adding them during the first or the second step of the Hyp’Assay will allow us to determine if the inhibition affects DHPS or DOHH. Another way to discriminate between DHPS or DOHH inhibitors would be to use Hpu98, an antibody that recognized both hypusinated and deoxyhypusinated eIF5A, instead of Hpu24, which is specific for hypusinated eIF5A [18]. […] We performed a new Hyp’Assay by omitting DOHH in the reaction mix and using the Hpu98 antibody. First, we performed a dose response experiment with spermidine at pH: 8.0 and 9.0 (Fig 3E). The Hyp’Assay allows the detection of deoxyhypusinated eIF5A in a spermidine-dependent manner. Under these conditions, deoxyhypusination was equally efficient at both pH tested. […] We also tested the ability of GC7 (Fig 3F) and CPX or EDTA (Fig 3G) to inhibit DHPS. […] This provided us with another method to distinguish between DHPS and DOHH inhibitors.
as §2

[6] = system: human DHPS; conditions: read-out: Km of human DHPS for spermidine, cited from earlier work
[7] = concentration 1 (no unit on page; Fig 5A 0 to 1 mM)
[8] = concentration 10 (no unit on page; Fig 5A 0 to 1 mM)
[9] = concentration 100 (no unit on page; Fig 5A 0 to 1 mM)
[10] = concentration 1000 (no unit on page; Fig 5A 0 to 1 mM)

For `COc1ccccc1Oc1c(Cl)nc(-c2ccc(I)cc2)nc1Cl` [GL-1, 4,6-dichloro-2-(4-iodophenyl)-5-(2-methoxyphenoxy)pyrimidine], the IC50 [1] is listed as 0.21 µM.
With `N=C(N)NCCCCCCCO` [compound 3, 7-hydroxyheptylguanidine] the “concentration from which inhibition of hypusination was detectable” value [2] was 1 µM, the “hypusination signal, Mean (quantification from Figure 5A)” value [2, 7] was 75,7 and the “hypusination signal, Mean (quantification from Figure 5A)” value [2, 8] was 65,6. For the same molecule, the “hypusination signal, Mean (quantification from Figure 5A)” value [2, 9] was 63,6, the “hypusination signal, Mean (quantification from Figure 5A)” value [2, 10] was 58,2 and the “hypusinated eIF5A, Western blot quantification, Mean (Figure 5B)” value [3] was 50.5.
With `N=C(N)NCCCCCCCCO` [compound 4, 8-hydroxyoctylguanidine] the “concentration from which inhibition of hypusination was detectable” value [2] was 100 µM, the “hypusination signal, Mean (quantification from Figure 5A)” value [2, 7] was 109,4 and the “hypusination signal, Mean (quantification from Figure 5A)” value [2, 8] was 86,9. For the same molecule, the “hypusination signal, Mean (quantification from Figure 5A)” value [2, 9] was 67,2, the “hypusination signal, Mean (quantification from Figure 5A)” value [2, 10] was 64,0 and the “hypusinated eIF5A, Western blot quantification, Mean (Figure 5B)” value [3] was 64.75.
In the case of `NCCCCNCCCN` [spermidine], the EC50 [2] is reported as 5 µM, the “hypusination signal with the substance as substrate, Mean (quantification from Figure S3)” value (“hypusination signal with the substance” for short) ([2]; substrate concentration 0,01 (mM)) is reported as 1,46 and the “hypusination signal with the substance” value ([2]; substrate concentration 0,1 (mM)) is reported as 31,22. For the same molecule, the “hypusination signal with the substance” value ([2]; substrate concentration 0,0001 (mM)) was -0,19, the “hypusination signal with the substance” value ([2]; substrate concentration 0,001 (mM)) was -0,21 and the “hypusination signal with the substance” value ([2]; substrate concentration 1 (mM)) was 68,32. For the same molecule, the “hypusination signal with the substance” value ([2]; substrate concentration 10 (mM)) was 100,00, the “hypusination signal with the substance” value ([2]; substrate concentration 100 (mM)) was 86,96 and the “hypusination signal with the substance” value ([2]; substrate concentration 1000 (mM)) was 66,59. The “hypusination signal, Mean (quantification from Figure 3C)” value ([4]; concentration 1 (no unit on page; Fig 3C dose-response 0 to 100 μM)) was 84,83, the “hypusination signal, Mean (quantification from Figure 3C)” value ([4]; concentration 10 (no unit on page; Fig 3C dose-response 0 to 100 μM)) was 82,59 and the “deoxyhypusination signal, Mean (quantification from Figure 3E)” value (“deoxyhypusination signal, Mean” for short) ([5]; pH: 8.0, spermidine 1 µM as substrate) was 0,00. The “deoxyhypusination signal, Mean” value ([5]; pH: 8.0, spermidine 10 µM as substrate) was 50,47, the “deoxyhypusination signal, Mean” value ([5]; pH: 8.0, spermidine 100 µM as substrate) was 87,29 and the “deoxyhypusination signal, Mean” value ([5]; pH: 8.0, spermidine 1000 µM as substrate) was 98,05. The “deoxyhypusination signal, Mean” value ([5]; pH: 8.0, spermidine 10000 µM as substrate) was 100,00, the “deoxyhypusination signal, Mean” value ([5]; pH: 9.0, spermidine 1 µM as substrate) was 0,00 and the “deoxyhypusination signal, Mean” value ([5]; pH: 9.0, spermidine 10 µM as substrate) was 51,14. The “deoxyhypusination signal, Mean” value ([5]; pH: 9.0, spermidine 100 µM as substrate) was 85,89, the Km ([6]; ref 23) was 4 µM and the Km ([6]; ref 24) was 7.6 µM.

Reference: paper PMC11819603, “Development of a reliable, sensitive, and convenient assay for the discovery of new eIF5A hypusination inhibitors” (PLOS ONE, 2025)
